Assay results taken from patent US9688625B2, “Amorphous form of a thiocolchicine derivative” (priority 2014, dated 2017).

Legend:
Assay type in all cases: physicochemical
[1] = Chemical stability on storage, analyses by HPLC; details: for variation in the chemical composition: after one month at 40±2° C./75±5% relative humidity; for time for which chemically stable (none impurity departed from its initial value): HPLC
Experimental: The analyses were performed by HPLC.

[2] = Physical stability on storage (features of FIG. 1-4 maintained); details: 40±2° C./75±5 relative humidity
Experimental: The amorphous form of compound (I) has also been found physically stable at 25±2° C./60±5% relative humidity for at least three years and at 40±2° C./75±5 relative humidity for at least 6 months, as it maintained the characteristics features reported in FIG. 1-4.

[3] = Solubility (comparison of solid forms); details: compared with other crystalline forms

| SMILES | variation in the chemical composition [1] | time for which physically stable (maintained features of FIG. 1-4) [2] | solubility in water [3] | time for which chemically stable (none impurity departed from its initial value) ([1]; 25±2° C./60±5% relative humidity) | time for which chemically stable (none impurity departed from its initial value) ([1]; 40±2° C./75±5% relative humidity) |
| --- | --- | --- | --- | --- | --- |
| COc1cc2c(c(OC)c1OC)-c1ccc(SC)c(=O)cc1[C@@H](NC(=O)CCNC(=O)N[C@H]1CCc3cc(OC)c(OC)c(OC)c3-c3ccc(SC)c(=O)cc31)CC2 (single isomer, unassigned) [crystalline IDN 5404 obtained in Example 2] [reference compound] | 7% |  |  |  |  |
| COc1cc2c(c(OC)c1OC)-c1ccc(SC)c(=O)cc1[C@@H](NC(=O)CCNC(=O)N[C@H]1CCc3cc(OC)c(OC)c(OC)c3-c3ccc(SC)c(=O)cc31)CC2 [amorphous form of compound (I), IDN 5404] |  | at least 6 months | more soluble in water than other crystalline forms | at least three | at least 6 moths |
| COc1cc2c(c(OC)c1OC)-c1ccc(SC)c(=O)cc1[C@@H](NC(=O)CCNC(=O)N[C@H]1CCc3cc(OC)c(OC)c(OC)c3-c3ccc(SC)c(=O)cc31)CC2 (single isomer, unassigned) [crystalline IDN 5404 obtained in Example 3] [reference compound] | 4.1% |  |  |  |  |
